# Laboratory results reported in the supplement of paper PMC10307832.
# What was measured:
# Assay in all cases: relative viability (nuclei count vs DMSO), 5 days (fraction); higher = more cells survive
# [1] = compound: Cn1cc(-c2cnn3c(N)c(Br)c([C@@H]4CCCNC4)nc23)cn1 + Cc1nc(Nc2ncc(C(=O)Nc3c(C)cccc3Cl)s2)cc(N2CCN(CCO)CC2)n1 [Dasatinib] (partner 0.075 µM)
# Method in brief: (§1)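 Lung cancer cell lines in 1536-well plates got either a single drug or a fixed anchor-drug dose together with five library-drug doses (not always all listed) in √10 steps, by pin tool, on the day after seeding. Nuclei were counted after 5 days, and relative viability is the treated-to-vehicle ratio of nuclei counts. Values are medians of duplicate plates.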
# [2] = compound: Cn1cc(-c2cnn3c(N)c(Br)c([C@@H]4CCCNC4)nc23)cn1 + CCNC(=O)c1noc(-c2cc(C(C)C)c(O)cc2O)c1-c1ccc(CN2CCOCC2)cc1 [Luminespib] (partner 0.01 µM)
# Method in brief: as §1
# [3] = compound: Cn1cc(-c2cnn3c(N)c(Br)c([C@@H]4CCCNC4)nc23)cn1 + COc1cc2c(Oc3ccc(NC(=O)C4(C(=O)Nc5ccc(F)cc5)CC4)cc3F)ccnc2cc1OCCCN1CCOCC1 [Foretinib] (partner 0.25 µM)
# Method in brief: as §1
# [4] = compound: Cn1cc(-c2cnn3c(N)c(Br)c([C@@H]4CCCNC4)nc23)cn1 + Nc1ncn([C@H]2C[C@H](O)[C@@H](CO)O2)c(=O)n1 [Decitabine] (partner 2 µM)
# Method in brief: as §1
Cell Line,relative viability ([1]; first compound 0.05 µM),relative viability ([1]; first compound 0.1581 µM),relative viability ([1]; first compound 0.5 µM),relative viability ([1]; first compound 1.581 µM),relative viability ([1]; first compound 5 µM),relative viability ([2]; first compound 0.05 µM),relative viability ([2]; first compound 0.1581 µM),relative viability ([2]; first compound 0.5 µM),relative viability ([2]; first compound 1.581 µM),relative viability ([2]; first compound 5 µM),relative viability ([3]; first compound 0.05 µM),relative viability ([3]; first compound 0.1581 µM),relative viability ([3]; first compound 0.5 µM),relative viability ([3]; first compound 1.581 µM),relative viability ([3]; first compound 5 µM),relative viability ([4]; first compound 0.05 µM),relative viability ([4]; first compound 0.1581 µM),relative viability ([4]; first compound 0.5 µM),relative viability ([4]; first compound 1.581 µM),relative viability ([4]; first compound 5 µM)
201T,0.614,0.568,0.651,0.587,0.439,1.05,1.17,1.06,0.988,0.83,0.999,0.952,1.26,0.554,0.265,0.809,0.856,0.844,0.882,0.93
A549,–,–,–,–,–,–,–,–,–,–,1.03,1.2,0.93,0.664,0.711,0.323,0.281,0.279,0.278,0.116
A-427,0.863,0.816,0.633,0.583,0.358,1.36,0.923,0.889,0.571,0.403,1.05,1.11,1.01,1.09,0.712,0.534,0.591,0.555,0.544,0.33
ABC-1,0.479,0.561,0.497,0.484,0.301,0.439,0.338,0.484,0.361,0.265,0.951,1.07,1.02,0.872,0.4,–,1.3,1.02,1.18,0.731
BEN,0.316,0.286,0.347,0.327,0.265,0.305,0.463,0.311,0.332,0.337,0.689,0.535,0.563,0.763,0.514,0.701,0.763,0.663,0.709,0.629
CAL-12T,0.467,0.427,0.26,0.299,0.174,0.517,0.173,0.252,0.289,0.204,1.17,1.08,0.965,0.789,0.228,–,–,–,–,–
COR-L23,0.495,0.451,0.441,0.343,0.2,0.775,0.745,0.366,0.24,0.119,1.07,1.13,1.08,0.907,0.439,0.407,0.489,0.481,0.354,0.248
COR-L 105,0.318,0.336,0.341,0.29,0.309,0.712,0.754,0.696,0.581,0.484,0.83,0.995,0.994,0.782,1.46,0.66,0.703,0.563,0.597,0.608
Calu-6,–,–,–,–,–,–,–,–,–,–,0.879,0.876,0.758,0.319,0.134,–,–,–,–,–
ChaGo-K-1,0.565,0.564,0.606,0.478,0.353,0.574,0.537,0.612,0.509,0.452,0.937,0.934,0.873,0.888,0.78,0.52,0.559,0.526,0.563,0.601
EBC-1,–,–,–,–,–,–,–,–,–,–,0.107,0.0968,0.0834,0.0926,0.0939,–,–,–,–,–
EKVX,0.376,0.549,0.54,0.496,0.578,0.939,0.958,0.797,0.845,0.667,0.749,0.925,0.699,0.816,0.469,0.768,0.414,0.343,0.571,0.41
EMC-BAC-2,0.315,0.328,0.333,0.342,0.25,1.25,1.37,1.12,0.879,1.08,1,1.11,1.02,0.977,0.926,0.976,1.02,0.981,0.827,0.887
EPLC-272H,0.34,0.339,0.333,0.286,0.162,0.63,0.464,0.314,0.194,0.205,0.794,0.723,0.603,0.514,0.25,0.342,0.304,0.336,0.303,0.253
H3255,0.313,0.379,0.39,0.446,0.267,0.882,0.914,1.07,0.938,0.473,0.843,0.998,0.998,0.971,0.83,0.624,0.586,0.585,0.647,0.474
HARA,0.37,0.316,0.332,0.252,0.157,0.752,0.706,0.631,0.376,0.16,1.07,1.05,0.706,0.798,0.207,0.691,0.497,0.624,0.584,0.41
HCC-15,0.706,0.633,0.511,0.464,0.483,0.636,0.419,0.396,0.198,0.382,1.09,1.09,1.05,0.941,1,0.652,0.689,0.633,0.552,0.561
HCC-44,–,–,–,–,–,–,0.995,1.29,0.557,0.771,–,–,–,–,–,0.887,1.06,1.04,0.969,0.964
HCC-78,–,0.384,0.388,0.398,0.295,–,–,–,–,–,–,0.666,0.561,0.535,0.576,0.733,0.729,0.783,0.675,0.492
